{
  "source": "patent US8691498B2",
  "about": "“Methods of screening for a compound that reduces atherogenesis” (Arena Pharmaceuticals, Inc., priority 2005, dated 2014)",
  "key": {"[1]": {"tested_on": "MCP-1 mRNA in human macrophage", "assay": "Steady-state MCP-1 mRNA level in human macrophage (microarray)", "format": "cell-based", "details": "10 μM, 24 hours", "experimental": "(§1) Human peripheral blood monocytes were isolated from buffy coat by dextran and ficoll purification. Monocytes were then purified using a monocyte isolation kit from Miltenyi Biotec. Monocytes were cultured for 7 days with 10 ng/ml GM-CSF to derive macrophage cells. […] MCP-1 and IL-8 steady-state mRNA levels were assessed by microarray analysis. Vehicle was dimethyl sulfoxide (DMSO); the final concentration of DMSO in the culture was 0.1% (v/v). Expression levels are the average and SD of two replicates."}, "GPR84 [2]": {"molecular_target": "T1, GPR84 (Homo sapiens, UniProt Q9NQS5)", "T1 sequence (Q9NQS5 whole entry)": "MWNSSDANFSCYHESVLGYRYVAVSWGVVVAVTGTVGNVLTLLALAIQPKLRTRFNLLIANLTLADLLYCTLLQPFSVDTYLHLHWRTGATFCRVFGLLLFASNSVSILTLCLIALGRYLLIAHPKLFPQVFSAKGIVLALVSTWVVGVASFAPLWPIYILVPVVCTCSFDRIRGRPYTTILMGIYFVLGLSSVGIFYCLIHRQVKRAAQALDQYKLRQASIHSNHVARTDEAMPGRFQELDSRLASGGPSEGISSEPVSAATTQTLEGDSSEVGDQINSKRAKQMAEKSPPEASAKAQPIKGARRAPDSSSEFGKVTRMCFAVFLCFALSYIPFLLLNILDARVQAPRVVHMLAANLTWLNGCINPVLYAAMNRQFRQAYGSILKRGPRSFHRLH", "assay": "IP3 assay in 293 cells transfected with GPR84, with or without Gq(del)/Gi chimeric G protein", "format": "cell-based", "design": "expressed in transfected cells; host or cells: 293 cells comprising or not comprising Gq(del)/Gi", "details": "293 cells comprising Gq(del)/Gi chimeric G protein, 10 μM, 3 hrs", "experimental": "IP3 Assay of GPR84 activity was carried out. 293 cells were transfected with either vector alone or vector containing polynucleotide encoding GPR84. […] 24 hrs after transfection, cells were plated into 96 well plates, labeled overnight with ^3H-myoinositol."}, "[3]": {"tested_on": "ABCA1 mRNA in human macrophage", "assay": "Steady-state ABCA1 mRNA level in human macrophage (TaqMan)", "format": "cell-based", "details": "human monocyte-derived macrophage, 24 hours", "experimental": "Macrophages were derived from monocytes as previously indicated. […] Vehicle was dimethyl sulfoxide (DMSO); the final concentration of DMSO in the culture was 0.1% (v/v). Total RNA was extracted from the cells and analyzed by TaqMan analysis as previously indicated to assess steady-state ABCA1 mRNA level. Data are the average and SD of three replicates. The qPCR reactions were prepared from the cDNA using the Bio-Rad qPCR kit, following the manufacturer's protocol. The qPCR reactions were performed using the ABI Prism 7900HT machine with the following temperatures and times: 50° C.—2 min, 95° C.—10 min followed by 40 cycles of 95° C.—15 sec and 60° C.—1 min."}, "GPR88": {"molecular_target": "GPR88 (Homo sapiens, UniProt Q9GZN0)", "sequence (Q9GZN0 whole entry)": "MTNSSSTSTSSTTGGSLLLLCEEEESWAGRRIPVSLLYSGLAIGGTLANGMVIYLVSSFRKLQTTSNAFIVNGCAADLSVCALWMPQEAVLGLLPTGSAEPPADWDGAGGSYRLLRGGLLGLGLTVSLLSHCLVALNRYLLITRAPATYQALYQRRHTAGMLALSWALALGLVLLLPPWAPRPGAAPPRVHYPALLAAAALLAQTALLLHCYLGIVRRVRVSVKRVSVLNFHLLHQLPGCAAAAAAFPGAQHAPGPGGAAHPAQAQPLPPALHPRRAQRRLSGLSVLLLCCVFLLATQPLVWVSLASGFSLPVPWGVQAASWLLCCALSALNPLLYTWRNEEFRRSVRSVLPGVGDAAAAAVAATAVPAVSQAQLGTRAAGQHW", "assay": "EC50 at GPR88 (selectivity, data not shown)", "format": "cell-based", "details": "for EC50: not shown; for selectivity for GPR84 over GPR88: concluded from EC50 at GPR84 and GPR88"}, "GPR84 [4]": {"molecular_target": "T1, GPR84", "assay": "Cyclase (cAMP Flashplate) assay in 293 cells transfected with GPR84", "format": "cell-based", "details": "1 hr treatment", "excerpt": "Thyroid-stimulating hormone (TSH, or thyrotropin) receptor (TSHR) causes the accumulation of intracellular cAMP on activation by its ligand TSH. An effective technique for measuring the decrease in production of cAMP corresponding to activation of a Gi-coupled receptor is to co-transfect TSHR with the Gi-coupled receptor and to carry out the assay in the presence of TSH to raise the level of basal cAMP, whereby TSHR acts as a “signal window enhancer.” Such an approach was used here. Cyclase assay of GPR84 activity was carried out. 293 cells were transfected with either vector alone or vector containing polynucleotide encoding GPR84."}, "[5]": {"tested_on": "IL-8 mRNA in human macrophage", "assay": "Steady-state IL-8 mRNA level in human macrophage (microarray)", "format": "cell-based", "details": "10 μM, 24 hours", "experimental": "as §1"}, "[6]": {"tested_on": "TNFα secretion by mouse macrophage cell line RAW", "assay": "TNFα secretion by mouse macrophage cell line RAW (ELISA)", "format": "cell-based", "details": "RAW cells, 1 μM for 24 hours, absence or presence of LPS", "experimental": "RAW cells were cultured to subconfluency. […] Vehicle was dimethyl sulfoxide (DMSO); the final concentration of DMSO in the culture was 0.1% (v/v). Cells were then stimulated with the indicated concentrations of LPS for 24 hours. Supernatants were collected and TNFα levels were assayed using a mouse specific TNFα ELISA kit from Biosource."}, "[7]": {"tested_on": "TNFα secretion by human macrophage", "assay": "TNFα secretion by human macrophage (ELISA)", "format": "cell-based", "details": "10 μM for 24 hrs, absence or presence of LPS", "experimental": "Human peripheral blood monocytes were isolated from buffy coat by dextran and ficoll purification. Monocytes were then purified using a monocyte isolation kit from Miltenyi Biotec. Monocytes were cultured for 7 days with 10 ng/ml GM-CSF to derive macrophage cells. […] Vehicle was dimethyl sulfoxide (DMSO); the final concentration of DMSO in the culture was 0.1% (v/v). Cells were then stimulated with the indicated concentrations of LPS for 24 hours. Supernatants were collected and TNFα levels were assayed using a human specific TNFα ELISA kit from Biosource."}, "GPR84 [8]": {"molecular_target": "T1, GPR84", "assay": "Melanophore pigment aggregation assay, melanophores transiently transfected with human GPR84", "format": "cell-based", "design": "Full-Length Cloning of Endogenous Human GPR84; expressed in transfected cells; host or cells: melanophores (transient transfection)", "details": "representative melanophore assay, one hour incubation", "excerpt": "Melatonin activates an endogenous Gi-coupled receptor in the melanophores and causes them to aggregate their pigment. […] If the receptor were either a Gs or Gq coupled receptor, then the melatonin-aggregated melanophores would undergo pigment dispersion. In contrast, if the receptor was a Gi-coupled receptor, then the pigment-dispersed cells would be expected to undergo a dose-dependent pigment aggregation."}, "[9]": {"tested_on": "GPR84 mRNA in human monocytes", "assay": "GPR84 mRNA expression in primary human monocytes (QRT-PCR)", "format": "cell-based", "details": "overnight", "excerpt": "Peripheral blood leukocytes were separated from erythrocytes by sedimentation in a dextran containing saline solution. The leukocytes were washed, and mononuclear cells were isolated on a Ficoll density gradient. Peripheral blood mononuclear cells were then washed and negatively selected using a MACS® monocyte isolation kit II (Miltenyi Biotec, Auburn, Calif.) and LS MACS® cell separation columns according to manufacturer's instructions. Freshly isolated monocytes were then resuspended in culture medium alone or culture medium supplemented with TNFα (10 ng/ml) or IFNγ (10 or 100 ng/ml) and allowed to adhere to wells precoated with vitronectin. Cultures were harvested at the indicated times. GPR84 TaqMan analysis was performed essentially as described in Part A of Example 15, infra. Multiple replicates were obtained from different individual donors. Data are expressed as the mean of the ratio of the GPR84 signal to the HS9 (Human ribosomal protein S9, housekeeping gene) signal±SEM."}, "GPR84 [10]": {"molecular_target": "T1, GPR84", "assay": "GTPγS binding assay with membranes from GPR84 transfected CHO-KI cells", "format": "biochemical", "details": "not shown", "experimental": "GTPγS assay of GPR84 activity was carried out. Membranes prepared from GPR84 transfected CHO-KI cells were dissolved in binding buffer (20 mM HEPES, pH 7.4, 100 mM NaCl, 10 mM MgCl2) and homogenized briefly using a polytron. Membrane protein concentration was determined by Bradford assay and the membranes were diluted to 0.4 mg/ml in binding buffer. […] Binding was allowed to proceed for one hour before centrifuging the plates at room temperature to pellet the membrane and subsequent counting in a TopCount scintillation counter."}},
  "data": [
    {"molecule": "CCCCCCCCCCCC1=C(O)C(=O)C=C(O)C1=O", "note": "[Compound 1, 2,5-Dihydroxy-3-undecyl-[1,4]benzoquinone]", "values": [
      {"measurement": "steady-state level of MCP-1 mRNA", "setting": "[1]", "result": "decrease"},
      {"measurement": "level of intracellular IP accumulation", "setting": "GPR84 [2]", "result": "increase"},
      {"measurement": "steady-state level of ABCA1 mRNA", "setting": "[3]", "result": "increase"},
      {"measurement": "EC50", "setting": "GPR88", "result": "> 100", "unit": "µM"},
      {"measurement": "level of intracellular cAMP", "setting": "GPR84 [4]", "result": "decrease"},
      {"measurement": "steady-state level of IL-8 mRNA", "setting": "[5]", "result": "increase"},
      {"measurement": "TNFα secretion", "setting": "[6]", "result": "no effect"},
      {"measurement": "TNFα secretion", "setting": "[7]", "result": "no effect"}
    ]},
    {"molecule": "CCCCCC#CCC#CCC#CCC#CCCCC(=O)O", "note": "[Compound 2, Icosa-5,8,11,14-tetraynoic acid]", "values": [
      {"measurement": "selectivity for GPR84 over GPR88", "setting": "GPR88", "result": "selective GPR84 agonist"},
      {"measurement": "EC50", "setting": "GPR88", "result": "> 10", "unit": "µM"},
      {"measurement": "EC50", "setting": "GPR84 [8]", "result": 0.0482, "unit": "µM"}
    ]},
    {"molecule": "CCCCC/C=C/C/C=C/C=C/C=C/[C@@H](O)[C@@H](O)CCCC(=O)O", "note": "[Compound 3, 5S,6R-Dihydroxy-icosa-7,9,11,14-tetraenoic acid]", "values": [
      {"measurement": "selectivity for GPR84 over GPR88", "setting": "GPR88", "result": "selective GPR84 agonist"},
      {"measurement": "EC50", "setting": "GPR88", "result": "> 10", "unit": "µM"},
      {"measurement": "EC50", "setting": "GPR84 [8]", "result": 0.0308, "unit": "µM"}
    ]},
    {"molecule": "IFNγ: proinflammatory cytokine interferon gamma", "values": [
      {"measurement": "GPR84 mRNA expression", "setting": "[9]; primary monocytes, 10 or 100 ng/ml", "result": "dose-dependent increase"}
    ]},
    {"molecule": "Pertussis toxin", "values": [
      {"measurement": "effect on stimulation of GTPγS binding to membrane by Compound 1", "setting": "GPR84 [10]", "result": "inhibit"}
    ]},
    {"molecule": "TNFα", "values": [
      {"measurement": "GPR84 mRNA expression", "setting": "[9]; primary human monocytes, 10 ng/ml", "result": "significant increase"}
    ]}
  ]
}
